Source: patent US6399581B1, “Compound possessing potent thrombin receptor antagonist activity” (Harbor Branch Oceanographic Institution, Inc., priority 1999, dated 2002)

Experiments:
thrombin receptor = target: T1, thrombin receptor (Homo sapiens, UniProt P25116); test: Thrombin receptor antagonist assay using FLIPR: thrombin-induced intracellular calcium mobilization in HeLa cells; type: cell-based; conditions: fluo-3, thrombin 0.3 U/ml
T1 construct: HeLa cells, which constitutively express the thrombin receptor; endogenous in cells; host or cells: HeLa cells
T1 sequence (P25116 22-425): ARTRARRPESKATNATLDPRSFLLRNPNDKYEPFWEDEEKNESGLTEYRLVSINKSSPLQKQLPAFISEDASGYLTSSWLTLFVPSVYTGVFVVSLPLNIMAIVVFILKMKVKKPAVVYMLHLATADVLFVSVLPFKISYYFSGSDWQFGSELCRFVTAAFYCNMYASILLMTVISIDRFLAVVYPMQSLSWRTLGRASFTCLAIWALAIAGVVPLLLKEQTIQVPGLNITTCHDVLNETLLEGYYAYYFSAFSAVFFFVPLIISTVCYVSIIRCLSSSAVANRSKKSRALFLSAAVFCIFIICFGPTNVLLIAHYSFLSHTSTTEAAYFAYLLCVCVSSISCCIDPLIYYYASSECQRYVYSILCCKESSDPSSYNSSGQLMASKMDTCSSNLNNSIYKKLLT
Protocol: Tests were conducted of inhibition of thrombin-induced calcium mobilization in HeLa cells (see FIG. 2). […] The HPLC profiles of the extracts were very similar, and in both cases the biological activity resided in the same chromatographic fractions indicating common active principles. One of these was fully deconvoluted, and several active components were isolated. These were all glycosides of penasterol though differing in the number of sugar residues attached at the C-1 position.
Thrombin receptor antagonist assay using FLIPR (fluorescence)imaging plate reader: HeLa cells were suspended in complete media and the cell density measured then adjusted to give a final cell density of 2.0×10^5/ml. 100 μl of cell suspension was dispensed into 96-well microtitre plates using a Multipdrop 96/384 well plate dispenser. […] Fluorescence output was read every 1 second for the first 20 seconds then every 5 seconds for a further 30 seconds.
An assay was conducted based upon measurement of thrombin-inducedintracellular calcium mobilization in HeLa cells, which constitutively express the thrombin receptor. Intracellular calcium flux was measured using the fluorescent dye fluo-3' which in the absence of calcium ions fluoresces only weakly, but in the presence of calcium increases fluorescence by approximately 100-fold. Fluorescence was measured using a fluorescence imaging plate reader (FLIPR; see FIG. 2).

[1] = target: T2, protease-activated receptor 1 (PAR-1) (Homo sapiens, UniProt P25116); test: SFLLRN-induced platelet aggregation, human washed platelets; type: cell-based
T2 construct: Blood was withdrawn from the antecubal vein of healthy human volunteers; endogenous in cells; host or cells: washed platelets from blood of healthy human volunteers
T2 sequence (P25116 22-425): T1 sequence (P25116 22-425)
Protocol: (§1) Platelet aggregation assay: Blood was withdrawn from the antecubal vein of healthy human volunteers who had taken no medication for 14 days. The blood (9 volumes) was anti-coagulated with 1 volume of 3.8% w/v tri-sodium citrate, to give a final citrate concentration of 12.9 mM. To each 20 ml volume of anti-coagulated blood 50 μl of a 10 μg/ml prostacyclin (PGI2) solution was added to prevent activation during the platelet isolation process. The prostacyclin-treated blood was then centrifuged (1280×g; 4 minutes) to yield platelet-rich plasma (PRP). […] The supernatant (platelet-poor plasma) was discarded and the platelets resuspended in a Hepes buffer (NaCl (8 g/l); NaHCO3 (1 g/l); KCl (0.2 g/l); KH2 PO4 (0.1 g/l); Hepes (1.2 g/l); D-Glucose (1 g/l) adjusted to a pH of 6.4. The resultant platelet suspension was again centrifuged (1280×g; 8 minutes) to pellet the platelets. The supernatant was discarded and the platelets resuspended in a Hepes buffer of the same composition but adjusted to a pH of 7.4. The platelet count was then adjusted to 300,000 platelets/μl, following quantification on a Sysmex K1000 Haematological analyser and CaCl2 (1 mM) and MgCl2 (0.5 mM) were added back. […]
(§2) Platelet aggregation, in a human washed platelet preparation, was quantified using an optical aggregometer. […]

[2] = tested on: human washed platelet preparation; test: U-46619-induced platelet aggregation, human washed platelets; type: cell-based; conditions: U-46619 3 μM
Protocol: as §1, §2

[3] = target: T2, protease-activated receptor 1 (PAR-1); test: Thrombin-induced platelet aggregation, human washed platelets; type: cell-based; conditions: thrombin 0.1 U/ml
Protocol: as §1, §2

[4] = tested on: liver hepatocyte (HepG2) cells; test: Toxicity against liver hepatocyte (HepG2) cells; type: cell-based
rat mast cells = conditions: cited from earlier work
C5 a-receptor = target: T3, C5 a-receptor (Homo sapiens, UniProt P21730); conditions: cited from earlier work
T3 sequence (P21730 1-350): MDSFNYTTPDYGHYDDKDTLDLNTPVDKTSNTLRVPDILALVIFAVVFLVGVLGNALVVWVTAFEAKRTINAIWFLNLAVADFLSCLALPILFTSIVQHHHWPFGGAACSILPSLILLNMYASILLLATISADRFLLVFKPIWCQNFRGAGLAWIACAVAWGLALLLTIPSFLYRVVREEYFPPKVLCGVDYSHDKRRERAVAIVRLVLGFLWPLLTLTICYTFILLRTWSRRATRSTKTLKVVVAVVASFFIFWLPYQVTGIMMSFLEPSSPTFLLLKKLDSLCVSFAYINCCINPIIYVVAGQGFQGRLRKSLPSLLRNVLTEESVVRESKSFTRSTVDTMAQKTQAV

## CC(C)=CCC[C@@H](C)[C@H]1CC[C@@]2(C(=O)O)C3=C(CC[C@]12C)[C@@]1(C)CC[C@H](O[C@@H]2OC[C@H](O)[C@H](O)[C@H]2O[C@@H]2O[C@H](CO)[C@H](O)[C@H](O)[C@H]2O)C(C)(C)[C@@H]1CC3 [Eryloside F, eryloside F]
Thrombin receptor
  Inhibition of thrombin-induced calcium mobilization (thrombin receptor antagonist activity): most potent activity
[1]; SFLLRN 3 μM vs U-46619 3 μM
  Fold more potent against SFLLRN- than against U-46619-induced platelet aggregation: approximately 6 fold
[1]; SFLLRN 3 μM, human washed platelets
  IC50, inhibition of SFLLRN-induced platelet aggregation: 0.3 µg/mL
[2]
  IC50, inhibition of U-46619-induced platelet aggregation: 1.7 µg/mL
[3]
  Inhibitory potency against thrombin-induced platelet aggregation relative to SFLLRN-induced, fold lower: approximately 20 fold
[4]
  Toxicity against HepG2 cells: low toxicity

## CC(=O)O[C@H]1CC[C@]2(C)C3=C(CC[C@H]2C1(C)C)[C@]1(C(=O)O)CC[C@H]([C@H](C)CCC=C(C)C)[C@@]1(C)CC3 [acetylpenasterol]
Rat mast cells
  Inhibition of IgE-dependent histamine release: inhibit IgE-dependent histamine release

## CC(C)=CCC[C@@H](C)[C@H]1CC[C@@]2(C(=O)O)C3=C(CC[C@]12C)[C@@]1(C)CCC(=O)C(C)(C)[C@@H]1CC3 [penasterone]
Rat mast cells
  Inhibition of IgE-dependent histamine release: inhibit IgE-dependent histamine release

## Eryloside E
C5 a-receptor
  Antagonism of C5a-receptor binding: antagonist of C5 a-receptorbinding

## Penasterol
Rat mast cells
  Inhibition of IgE-dependent histamine release: inhibit IgE-dependent histamine release
